The values that follow are results of earlier work, collected in patent US8450455B2, “cRGD peptide derivative and its manufacture, and implant having a coating containing a cRGD peptide derivative” (Biotronik AG, priority 2010, dated 2013).

The conditions of data set [1]: 1-octanol/water, 25° C.
Data set [2] addresses integrin ανβ3 (Homo sapiens, UniProt P05106+P06756). The conditions noted are these: integrin expressed by tumor cells.

Sequence of integrin ανβ3 (P06756 31-889 limits assumed): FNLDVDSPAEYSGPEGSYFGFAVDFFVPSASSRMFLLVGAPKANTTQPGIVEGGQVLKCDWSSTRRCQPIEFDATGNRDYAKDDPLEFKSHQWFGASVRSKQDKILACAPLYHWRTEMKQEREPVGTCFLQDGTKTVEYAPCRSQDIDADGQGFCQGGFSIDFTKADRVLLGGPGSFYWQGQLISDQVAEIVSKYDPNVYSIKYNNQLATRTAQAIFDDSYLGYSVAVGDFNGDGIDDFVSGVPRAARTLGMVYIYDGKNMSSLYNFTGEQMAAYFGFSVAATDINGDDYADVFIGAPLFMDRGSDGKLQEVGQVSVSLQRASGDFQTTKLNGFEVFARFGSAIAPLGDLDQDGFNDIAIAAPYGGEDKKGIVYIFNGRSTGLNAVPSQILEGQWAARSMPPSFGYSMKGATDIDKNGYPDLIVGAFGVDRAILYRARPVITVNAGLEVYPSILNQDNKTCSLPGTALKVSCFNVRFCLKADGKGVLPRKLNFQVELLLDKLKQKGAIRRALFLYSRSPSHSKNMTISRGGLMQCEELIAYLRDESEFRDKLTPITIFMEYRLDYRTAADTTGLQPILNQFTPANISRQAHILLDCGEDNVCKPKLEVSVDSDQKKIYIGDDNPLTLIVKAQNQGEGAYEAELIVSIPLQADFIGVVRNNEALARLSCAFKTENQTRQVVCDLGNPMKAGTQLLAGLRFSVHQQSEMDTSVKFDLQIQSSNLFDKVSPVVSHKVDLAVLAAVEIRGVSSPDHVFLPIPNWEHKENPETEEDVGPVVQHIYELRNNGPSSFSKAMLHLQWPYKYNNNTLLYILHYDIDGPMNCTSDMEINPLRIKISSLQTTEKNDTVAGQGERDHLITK
Sequence of integrin ανβ3 (P06756 891-1048 partner limits assumed): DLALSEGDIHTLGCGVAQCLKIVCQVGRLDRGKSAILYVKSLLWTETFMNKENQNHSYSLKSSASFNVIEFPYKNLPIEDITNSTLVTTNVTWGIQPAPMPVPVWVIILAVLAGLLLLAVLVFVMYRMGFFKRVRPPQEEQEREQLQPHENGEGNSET
Sequence of integrin ανβ3 (P05106 27-788): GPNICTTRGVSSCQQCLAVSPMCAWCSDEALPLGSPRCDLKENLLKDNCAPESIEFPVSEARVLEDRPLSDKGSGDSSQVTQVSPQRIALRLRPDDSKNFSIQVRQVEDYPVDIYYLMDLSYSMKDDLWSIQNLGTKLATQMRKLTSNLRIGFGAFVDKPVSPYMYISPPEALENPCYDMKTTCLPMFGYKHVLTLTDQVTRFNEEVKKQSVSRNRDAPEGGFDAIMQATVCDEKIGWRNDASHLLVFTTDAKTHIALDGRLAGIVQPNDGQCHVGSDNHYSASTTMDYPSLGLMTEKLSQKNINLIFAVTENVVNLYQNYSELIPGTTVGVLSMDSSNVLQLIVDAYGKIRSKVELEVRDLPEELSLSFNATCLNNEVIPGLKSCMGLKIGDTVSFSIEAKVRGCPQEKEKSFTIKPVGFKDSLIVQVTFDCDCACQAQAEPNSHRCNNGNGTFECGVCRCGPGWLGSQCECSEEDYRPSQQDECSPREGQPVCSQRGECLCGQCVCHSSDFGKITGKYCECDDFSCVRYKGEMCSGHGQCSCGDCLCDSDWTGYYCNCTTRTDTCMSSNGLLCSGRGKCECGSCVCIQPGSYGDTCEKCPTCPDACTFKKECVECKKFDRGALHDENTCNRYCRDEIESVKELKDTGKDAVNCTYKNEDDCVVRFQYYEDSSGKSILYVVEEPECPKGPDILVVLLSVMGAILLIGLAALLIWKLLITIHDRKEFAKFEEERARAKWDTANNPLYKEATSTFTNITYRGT

Turning to `CCCCCCCN` [1-aminoheptane], the logP in data set [1] is 2.57.
For the molecule c(RGDfV), the “inhibition of integrin ανβ3” value in data set [2] is reported as “well-inhibited”.

One may read the logP as the decadic logarithm of the partition coefficient of the neutral form, usually between octanol and water.
